Experimental data published in patent publication US20250222146A1, “Radiopharmaceuticals Targeting Somatostatin Receptor 2 and Uses Thereof” (RayzeBio, Inc., priority 2023, published 2025).
pKi: −log10 of the molar value. Numbered stars: 1 amine (or outer) side, 2 acyl side, 3 side chain; on linkers, the order of the positions; unused ones are H or OH. Square brackets hold non-standard residues; d marks the D form. Peptide text beside a SMILES is read from it. * marks the point of attachment. DOTA(Lu)NH(CH2)6NHCOCH2 = O=C(CN1CCN2CCN3CCN(CC1)CC(=O)[O][Lu]([O]C(=O)C2)[O]C(=O)C3)NCCCCCCNC(=O)C*; X6 = O=C(CN1CCN2CCN3CCN(CC1)CC(=O)[O][Lu]([O]C(=O)C2)[O]C(=O)C3)NCCOCCOCCOCCNC(=O)C*; X17 = O=C(CN1CCN2CCN3CCN(CC1)CC(=O)[O][Lu]([O]C(=O)C2)[O]C(=O)C3)NCCNC(=O)C*; DOTA(Lu) = O=C1CN2CCN3CCN(CC(=O)*)CCN(CC2)CC(=O)[O][Lu]([O]1)[O]C(=O)C3; Ala(piperidin-4-yl) = O=C([C@H](CC1CCN([*:3])CC1)N[*:1])[*:2]; dTrp(βS-Me) = C[C@@H](c1c[nH]c2ccccc12)[C@@H](N)C(=O)O; βMeTrp(2S,3R) = C[C@H](c1c[nH]c2ccccc12)[C@H](N)C(=O)O; dTrp(5-OMe) = COc1ccc2[nH]cc(C[C@@H](N)C(=O)O)c2c1; Phe(4-CH2NH2) = NCc1ccc(C[C@H](N)C(=O)O)cc1; Lys(iPr) = CC(C)NCCCC[C@H](N)C(=O)O; mTyr = N[C@@H](Cc1cccc(O)c1)C(=O)O; NMehCys = CN[C@@H](CCS)C(=O)O; NMeK = CN[C@@H](CCCCN)C(=O)O

Molecular target: SSTR2 (Homo sapiens, UniProt P30874)
Sequence (P30874 whole entry): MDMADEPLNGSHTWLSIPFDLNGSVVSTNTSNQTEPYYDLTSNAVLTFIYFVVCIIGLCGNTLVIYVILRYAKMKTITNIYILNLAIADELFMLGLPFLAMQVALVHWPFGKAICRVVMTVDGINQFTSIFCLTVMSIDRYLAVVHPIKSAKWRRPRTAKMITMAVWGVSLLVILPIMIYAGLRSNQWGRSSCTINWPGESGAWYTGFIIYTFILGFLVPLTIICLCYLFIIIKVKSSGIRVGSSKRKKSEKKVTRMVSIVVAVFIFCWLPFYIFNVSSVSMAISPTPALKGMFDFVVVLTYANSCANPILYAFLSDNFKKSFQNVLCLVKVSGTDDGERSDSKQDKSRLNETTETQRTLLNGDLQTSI
Experiment: SSTR binding affinity by radioligand binding competition assay ([125I]-Tyr11-Somatostatin, membrane extracts)
Details: radioligand competition, [125I]-Tyr11-Somatostatin 0.1 nM, membrane extracts; Ki from IC50 by Cheng Prusoff

In the case of `COc1ccc2[nH]cc(C[C@H]3NC(=O)[C@H](Cc4ccc(O)cc4)NC(=O)[C@H](CCSCC(=O)NCCCCCCNC(=O)CN4CCN5CCN6CCN(CC4)CC(=O)[O][Lu]([O]C(=O)C5)[O]C(=O)C6)N(C)C(=O)[C@H](Cc4ccccc4)NC(=O)[C@H]([C@@H](C)O)NC(=O)[C@H](CC4CCNCC4)NC3=O)c2c1` [RB-0006076] (cyclo(F[NMehCys](DOTA(Lu)NH(CH2)6NHCOCH2)Y[dTrp(5-OMe)][Ala(piperidin-4-yl)]T)), the “SSTR2 Ki” value was “FALSE”.

Same assay, conditions: radioligand competition, [125I]-Tyr11-Somatostatin 0.1 nM, membrane extracts; Ki from IC50 by Cheng Prusoff; read-out: SSTR2 Ki

First: C[C@@H](O)[C@@H]1NC(=O)[C@H](CC2CCNCC2)NC(=O)[C@@H](Cc2c[nH]c3ccccc23)NC(=O)[C@H](Cc2ccc(O)cc2)NC(=O)[C@H](CCCCNC(=O)CN2CCN3CCN4CCN(CC2)CC(=O)[O][Lu]([O]C(=O)C3)[O]C(=O)C4)N(C)C(=O)[C@H](Cc2ccc(O)cc2)NC1=O [RB-0005983] (cyclo([NMeK](DOTA(Lu))Y[dW][Ala(piperidin-4-yl)]TY))
Second: C[C@@H](O)[C@@H]1NC(=O)[C@H](CC2CCNCC2)NC(=O)[C@@H](Cc2c[nH]c3ccccc23)NC(=O)[C@H](Cc2ccc(O)cc2)NC(=O)[C@H](CCCCNC(=O)CN2CCN3CCN4CCN(CC2)CC(=O)[O][Lu]([O]C(=O)C3)[O]C(=O)C4)N(C)C(=O)[C@H](Cc2cccc(O)c2)NC1=O [RB-0005984] (cyclo([NMeK](DOTA(Lu))Y[dW][Ala(piperidin-4-yl)]T[mTyr]))
The pKi of the first is lower: 8.00 to 8.48 for the first, 8.48 to 9.00 for the second.

`C[C@@H](O)[C@@H]1NC(=O)[C@H](CC2CCNCC2)NC(=O)[C@@H]([C@@H](C)c2c[nH]c3ccccc23)NC(=O)[C@H](Cc2ccc(O)cc2)NC(=O)[C@H](CCCCNC(=O)CN2CCN3CCN4CCN(CC2)CC(=O)[O][Lu]([O]C(=O)C3)[O]C(=O)C4)N(C)C(=O)[C@H](Cc2cccc(O)c2)NC1=O` [RB-0005985] (cyclo([NMeK](DOTA(Lu))Y[dTrp(βS-Me)][Ala(piperidin-4-yl)]T[mTyr])) and `C[C@@H](O)[C@@H]1NC(=O)[C@H](CC2CCNCC2)NC(=O)[C@@H]([C@@H](C)c2c[nH]c3ccccc23)NC(=O)[C@H](Cc2ccc(O)cc2)NC(=O)[C@H](CCSCC(=O)NCCNC(=O)CN2CCN3CCN4CCN(CC2)CC(=O)[O][Lu]([O]C(=O)C3)[O]C(=O)C4)N(C)C(=O)[C@H](Cc2ccccc2)NC1=O` [RB-0005990] (cyclo(F[NMehCys](X17)Y[dTrp(βS-Me)][Ala(piperidin-4-yl)]T)) cannot be ordered by pKi: over 9.00 for the first, over 9.00 for the second.

First: C[C@@H](O)[C@@H]1NC(=O)[C@H](CC2CCNCC2)NC(=O)[C@H](Cc2c[nH]c3ccccc23)NC(=O)[C@H](Cc2ccc(O)cc2)NC(=O)[C@H](CCSCC(=O)NCCOCCOCCOCCNC(=O)CN2CCN3CCN4CCN(CC2)CC(=O)[O][Lu]([O]C(=O)C3)[O]C(=O)C4)N(C)C(=O)[C@H](Cc2ccccc2)NC1=O [RB-0005992] (cyclo(F[NMehCys](X6)YW[Ala(piperidin-4-yl)]T))
Second: C[C@@H](O)[C@@H]1NC(=O)[C@H](CC2CCNCC2)NC(=O)[C@@H]([C@@H](C)c2c[nH]c3ccccc23)NC(=O)[C@H](Cc2ccc(O)cc2)NC(=O)[C@H](CCSCC(=O)NCCOCCOCCOCCNC(=O)CN2CCN3CCN4CCN(CC2)CC(=O)[O][Lu]([O]C(=O)C3)[O]C(=O)C4)N(C)C(=O)[C@H](Cc2ccccc2)NC1=O [RB-0005994] (cyclo(F[NMehCys](X6)Y[dTrp(βS-Me)][Ala(piperidin-4-yl)]T))
The pKi of the first is lower: 8.00 to 8.48 for the first, over 9.00 for the second.

Compared with `C[C@@H](O)[C@@H]1NC(=O)[C@H](Cc2ccc(CN)cc2)NC(=O)[C@@H]([C@@H](C)c2c[nH]c3ccccc23)NC(=O)[C@H](Cc2ccc(O)cc2)NC(=O)[C@H](CCSCC(=O)NCCCCCCNC(=O)CN2CCN3CCN4CCN(CC2)CC(=O)[O][Lu]([O]C(=O)C3)[O]C(=O)C4)N(C)C(=O)[C@H](Cc2ccccc2)NC1=O` [RB-0006009] (cyclo(F[NMehCys](DOTA(Lu)NH(CH2)6NHCOCH2)Y[dTrp(βS-Me)][Phe(4-CH2NH2)]T)), `C[C@H](c1c[nH]c2ccccc12)[C@@H]1NC(=O)[C@H](Cc2ccc(O)cc2)NC(=O)[C@H](CCSCC(=O)NCCCCCCNC(=O)CN2CCN3CCN4CCN(CC2)CC(=O)[O][Lu]([O]C(=O)C3)[O]C(=O)C4)N(C)C(=O)[C@H](Cc2ccccc2)NC(=O)[C@H]([C@@H](C)O)NC(=O)[C@H](CCCCN)NC1=O` [RB-0006019] (cyclo(F[NMehCys](DOTA(Lu)NH(CH2)6NHCOCH2)Y[βMeTrp(2S,3R)]KT)) is higher in pKi: 8.48 to 9.00 for the first, over 9.00 for the second. The second binds more tightly here.

`CC(C)NCCCC[C@@H]1NC(=O)[C@@H]([C@@H](C)c2c[nH]c3ccccc23)NC(=O)[C@H](Cc2ccc(O)cc2)NC(=O)[C@H](CCSCC(=O)NCCCCCCNC(=O)CN2CCN3CCN4CCN(CC2)CC(=O)[O][Lu]([O]C(=O)C3)[O]C(=O)C4)N(C)C(=O)[C@H](Cc2ccccc2)NC(=O)[C@H]([C@@H](C)O)NC1=O` [RB-0006011] (cyclo(F[NMehCys](DOTA(Lu)NH(CH2)6NHCOCH2)Y[dTrp(βS-Me)][Lys(iPr)]T)) gave a pKi of 8.48 to 9.00.
